Values of other authors, collected in PMC3073735 (Chemistry & biology, 2011).
Where no end group is shown, it is not given here.

System: ferroportin
Details: ref Nemeth, et al., 2006

Substance: M21Y: synthetic hepcidin mutant from the literature (DTHFPICIFCCGCCHRSKCGYCCKT-OH; disulfide (positions not given here); ends not checked; UniProt P81172 60-84, looked up, variant M21Y)
- activity compared with native hepcidin: comparable activity to native hepcidin
